Results taken from US8962552B2, “Nanoparticles of therapeutic agents having low water solubility” (Centre Nationale de Recherche Scientifique, priority 2007, dated 2015).

What was measured:
[1] = Nanoparticle size, polydispersity index and surface potential by light scattering; type: physicochemical
Protocol: In general, the nanoparticles thus obtained have a mean size ranging from 30 to 650 nm, in particular from 30 to 500 nm and in particular from 50 to 250 nm, or even from 100 to 200 nm, measured by light scattering using a Coulter® N4MD nanosizer from Coulter Electronics, Hialeah, USA.
4 mg of squalenoylpaclitaxel are dissolved in […] of ethanol (2.5 mg/ml) and added dropwise with continuous stirring (speed of 500 rpm) to 1 ml of an aqueous solution containing 5% dextrose. The squalenoylpaclitaxel self-assembles in the form of nanoparticles with a size of between 100 and 200 nm. The ethanol is then completely evaporated off under reduced pressure using a Rotavapor® to obtain a nanoparticulate suspension of squalenoylpaclitaxel at a final concentration of 4 mg/ml.
Variable amounts (stated in Table 1 below) of squalenoylpaclitaxel are dissolved in 0.25 ml of tetrahydrofuran (THF). The solutions obtained are added dropwise with continuous stirring (speed of 500 rpm) to 0.25 ml of water. The squalenoylpaclitaxel precipitates in the form of nanoparticles between 100 and 200 nm in size. The THF is then completely evaporated off under reduced pressure using a Rotavapor® to obtain nanoparticulate squalenoylpaclitaxel suspensions whose size varies as a function of the concentration (see the table below).
100 μl of squalenoyldeoxyspergualine dissolved in ethanol (4 mg/ml) are added dropwise to 2 ml of distilled water with vigorous stirring. After evaporating off the ethanol under reduced pressure using a Rotavapor®, a suspension of nanoparticles 162 nm in size (polydispersity index 0.12 characterized by a surface potential of 27.38±2.60 mV) is obtained.
The mean size of the nanoparticles and the polydispersity index of the nanoparticles are determined at a temperature of 20° C. by light scattering with a zetasizer machine (Malvern Instruments, UK). The measurements are taken after diluting the nanoparticle suspension in MilliQ® water.

[2] = tested on: L1210 WT murine leukemia cell line; test: In vitro anticancer activity, MTT test on L1210 WT cells; type: cell-based; conditions: Mus musculus, 72 hours, nanoparticles, read-out: 50% inhibitory concentration (IC50)
Protocol: The in vitro anticancer activity of the conjugates of squalenoyl/paclitaxel type in the form of nanoparticles is performed on Madison's 109 (M109) murine pulmonary tumor cell line. The M109 cells are cultured in RPMI 1640, supplemented with 10% fetal calf serum, 50 U·ml^−1 of penicillin and 50 μg·ml^−1 of streptomycin and 2 mM of L-glutamine. This analysis is performed using the 3-[4,5-dimethylthiazol-2-yl]-3,5-diphenyltetrazolium bromide (MTT) test, which measures the mitochondrial dehydrogenase activity. The cells in exponential growth phase are inoculated into a 96-well plate and preincubated for 24 hours at 37° C. in a humidified atmosphere with 5% CO2 in the air. Various dilutions of paclitaxel nanoparticles are added to the cells in the culture medium. Each dilution is tested three times. After 72 hours at 37° C., 200 μL of MTT solution in the cell culture medium (0.5 mg/ml) are added to each well. […] The absorbing power of the transformed dyestuff, which is proportional to the number of viable cells, is measured at 570 nm using a microplate reader (Metertech Σ 960, Fisher Bioblock, Illkirch, France). The percentage of surviving cells is calculated by determining the ratio of the absorbing power between the treated cells and the untreated cells.
The in vitro anticancer activity of the squalenoyldoxorubicin nanoparticles is evaluated on an L1210 WT murine leukemia cell line. […]

[3] = tested on: L1210 aggressive metastatic leukemia model; test: In vivo anticancer activity, L1210 aggressive metastatic leukemia model; conditions: 13 mg·kg^−1 i.v. on days 1, 7 and 14, DBA/2 mice
Description: DBA/2 mice (4 to 5 weeks old) weighing about 15-18 g were used for this study. As for Example 17, the mice are fed with standard mouse feed and water ad libitum. The L1210 aggressive metastatic leukemia model (a murine leukemia) is developed by intravenously injecting the L1210 cells at exponential growth (0.1×10^6 cells) as a suspension, into the mice. The tumor-bearing mice are divided into 2 groups of 5-6, i.e. the untreated mice and the mice treated with squalenoyldoxorubicin nanoparticles (13 mg·kg^−1, injected intravenously on days 1, 7 and 14, after injection of the tumor cells). After treatment, the mice are controlled regularly to check the differences in weight and the survival rate, these parameters making it possible to evaluate the efficacy of the anticancer activity.

[4] = tested on: Madison's 109 (M109) murine pulmonary tumor cell line; test: In vitro anticancer activity, MTT test on M109 cells; type: cell-based; conditions: 72 hours, nanoparticles, read-out: 50% inhibitory concentration (IC50)
Protocol: The in vitro anticancer activity of the conjugates of squalenoyl/paclitaxel type in the form of nanoparticles is performed on Madison's 109 (M109) murine pulmonary tumor cell line. The M109 cells are cultured in RPMI 1640, supplemented with 10% fetal calf serum, 50 U·ml^−1 of penicillin and 50 μg·ml^−1 of streptomycin and 2 mM of L-glutamine. This analysis is performed using the 3-[4,5-dimethylthiazol-2-yl]-3,5-diphenyltetrazolium bromide (MTT) test, which measures the mitochondrial dehydrogenase activity. The cells in exponential growth phase are inoculated into a 96-well plate and preincubated for 24 hours at 37° C. in a humidified atmosphere with 5% CO2 in the air. Various dilutions of paclitaxel nanoparticles are added to the cells in the culture medium. Each dilution is tested three times. After 72 hours at 37° C., 200 μL of MTT solution in the cell culture medium (0.5 mg/ml) are added to each well. After incubating for 2 hours 30 minutes at 37° C., the culture medium is removed and the formazan crystals obtained are dissolved in 200 μL of an extraction solution (dimethyl sulfoxide). The absorbing power of the transformed dyestuff, which is proportional to the number of viable cells, is measured at 570 nm using a microplate reader (Metertech Σ 960, Fisher Bioblock, Illkirch, France). The percentage of surviving cells is calculated by determining the ratio of the absorbing power between the treated cells and the untreated cells.

[5] = tested on: M109 subcutaneous tumoral model (murine pulmonary tumor); test: In vivo anticancer activity, M109 subcutaneous tumoral model; conditions: 160 mg·kg^−1 i.v. for 5 consecutive days, CD2F1 mice, FIG. 2
Description: CD2F1 mice (4-5 weeks old) weighing about 15-18 g were used for this study. The mice are fed with standard mouse feed and water ad libitum. The M109 subcutaneous tumoral model (murine pulmonary tumor) is developed by injecting the M109 cells at exponential growth (1×10^6 cells) as a suspension, under the skin, into the lower portion of the abdomen of the mice. A palpable tumor (about 50-100 mm^3) is allowed to grow at the site of injection. The tumor-bearing mice are divided into 2 groups of 5-6, i.e. the untreated mice and the mice treated with squalenoyldiglycolyl-paclitaxel nanoparticles 160 mg·kg^−1 (injected intravenously for 5 consecutive days). The mice are controlled regularly to check the difference in the volume of the tumors, and thus to evaluate the anticancer efficacy.

[6] = tested on: mice (C57BL6); type: in vivo; conditions: 4 mg/ml suspension i.v., 4×50 mg/kg (paclitaxel equivalent)
Protocol: The nanoparticulate squalenoylpaclitaxel suspension as prepared in Example 3 (4 mg/ml) is directly injected intravenously into mice (C57BL6) at a dose of 4×50 mg/kg (paclitaxel equivalent); the injections take place on days 0, 5, 9 and 14. […] The direct intravenous injection of the Taxol solution (without dilution in 0.9% NaCl) leads to the immediate death of 100% of the treated mice. When the Taxol solution is prediluted in 0.9% NaCl, the maximum dose that can be injected is 20 mg/kg.

[7] = tested on: KB 3.1 cells; test: Tubulin immunofluorescence (spindle-poisoning activity) by confocal fluorescence microscopy; type: cell-based, human; conditions: nanoparticles 5 μM, 14-16 hours, FIG. 1B
Protocol: The characterization of this activity is performed by immunofluorescence according to the following protocol:
Day 1: KB 3.1 cells originating from a human cervical carcinoma, and HT-29 cells corresponding to a human colon cancer cell line, are deposited on 6-well plates at a density of 20 000 cells/well (final volume 2 ml RPMI plus FCS). The cells are incubated at a temperature of 37° C. and at 5% CO2.
Day 2: The cells are rinsed and the squalenoylpaclitaxel nanoparticles (concentration 5 μM) as prepared according to the protocol described in Example 3 are added thereto.
Day 3: After 14-16 hours, rinsing is performed twice with PBS and the extraction solution (Triton X-100 plus 0.5% PEM-PIPES 100 mM, EGTA 2 mM, MgCl2 2 mM, pH 6.8) is then added. After 4 minutes, rinsing is performed, followed by addition of 2 ml of a 3% solution of formaldehyde in PEM. 40 minutes later, rinsing is performed and 20% FCS in PBS is added over 30 minutes. Murine anti-α-tubulin FITC monoclonal antibody (diluted to 1:200) is then added and the mixture is incubated for 1 hour. It is finally rinsed with PBS and an analysis by confocal fluorescence microscopy (Leica TCS SP2) is performed.

[8] = 20° C., zetasizer, diluted in MilliQ water, compositions of Example 15
[9] = Example 9: 100 μl of 4 mg/ml ethanol solution added to 2 ml distilled water

## COc1cccc2c1C(=O)c1c(O)c3c(c(O)c1C2=O)CC(O)(C(=O)COC(=O)CC/C(C)=C/CC/C(C)=C/CC/C=C(\C)CC/C=C(\C)CCC=C(C)C)CC3OC1CC(N)C(O)C(C)O1 (stereo not drawn) [Example 14, 14-squalenoyldoxorubicin]
[1]; [8]
  Mean particle diameter: 138.2 nm
  Polydispersity index: 0.325
[2]
  IC50: 291 nM
[3]; FIG. 3
  Anticancer activity (variations in weight of mice): demonstrate effective anticancer activity
[3]; FIG. 4
  Survival rate: improved survival rate

## CC(C)=CCC/C(C)=C/CC/C(C)=C/CC/C=C(\C)CC/C=C(\C)CCC(=O)NCCCNCCCCNC(=O)C(O)NC(=O)CCCCCCNC(=N)N (stereo not drawn) [squalenoyldeoxyspergualine]
[1]; [9]
  Polydispersity index: 0.12
  Size of nanoparticles: 162 nm
  Surface potential: 27.38±2.60 mV

## Squalenoyldiglycolyl-paclitaxel [Example 11]
[1]; [8]
  Mean particle diameter: 150.0 nm
  Polydispersity index: 0.075
[4]
  IC50: 175 nM
[5]
  Anticancer activity: progression of tumor volume: show anticancer activity by controlling the progression of the M109 tumors

## Squalenoylsuccinyl-PEG340-paclitaxel [Example 12]
[1]; [8]
  Mean particle diameter: 643.9 nm
  Polydispersity index: 0.081
[4]
  IC50: 490 nM

## monosqualenoylpaclitaxel
[1]; 0.36 mmol squalenoylpaclitaxel in 0.25 ml THF added to 0.25 ml water
  Polydispersity index: 0.39
[1]; 0.88 mmol squalenoylpaclitaxel in 0.25 ml THF added to 0.25 ml water
  Polydispersity index: 0.30
[1]; 1.76 mmol squalenoylpaclitaxel in 0.25 ml THF added to 0.25 ml water
  Polydispersity index: 0.31
[1]; 0.36 squalenoylpaclitaxel in 0.25 ml THF added to 0.25 ml water
  Diameter: 151 ± 84 nm
[1]; 0.88 squalenoylpaclitaxel in 0.25 ml THF added to 0.25 ml water
  Diameter: 169 ± 92 nm
[1]; 1.76 squalenoylpaclitaxel in 0.25 ml THF added to 0.25 ml water
  Diameter: 177 ± 99 nm
[6]; days 0, 5, 9 and 14, C57BL6 mice
  Signs of toxicity: do not show any sign of toxicity
[6]; days 0, 5, 9 and 14, period of at least one month
  Mortality: No mortality is recorded
[7]
  Formation of tubulin lumps (spindle-poisoning activity): formation of tubulin lumps is clearly visible

## squalenoylC22-paclitaxel [Example 13]
[1]; [8]
  Mean particle diameter: 239.3 nm
  Polydispersity index: 0.077
[4]
  IC50: 7300 nM

## squalenoylsuccinylpaclitaxel [Example 10]
[1]; [8]
  Mean particle diameter: 250.9 nm
  Polydispersity index: 0.061
[4]
  IC50: 72 nM
